# Source: article PMC10149103 (Journal of medicinal chemistry, 2022)
# Where “and” joins values, the source holds several entries; their conditions need not be identical. Equal entries are not always repeated. Structures can show the parent of a compound that is named as a salt.
# Experiments:
# KOR [1] = biological target: T1, KOR (Mus musculus, UniProt P33534); assay: biochemical; details: read-out: KOR [35S]GTPγS Binding % Emax of U50,488H
# MOR = MOR (Mus musculus, UniProt P42866); assay: biochemical; assay type: biochemical; details: for Emax: read-out: MOR [35S]GTPγS Binding % Emax of DAMGO
# DOR [2] = biological target: T2, DOR (Homo sapiens, UniProt P41143); assay: biochemical; details: read-out: DOR [35S]GTPγS Binding % Emax of SNC80
# KOR [3] = biological target: T1, KOR; assay type: binding
# DOR [4] = biological target: T2, DOR; assay: biochemical; assay type: binding
# T2 sequence (P41143 whole entry): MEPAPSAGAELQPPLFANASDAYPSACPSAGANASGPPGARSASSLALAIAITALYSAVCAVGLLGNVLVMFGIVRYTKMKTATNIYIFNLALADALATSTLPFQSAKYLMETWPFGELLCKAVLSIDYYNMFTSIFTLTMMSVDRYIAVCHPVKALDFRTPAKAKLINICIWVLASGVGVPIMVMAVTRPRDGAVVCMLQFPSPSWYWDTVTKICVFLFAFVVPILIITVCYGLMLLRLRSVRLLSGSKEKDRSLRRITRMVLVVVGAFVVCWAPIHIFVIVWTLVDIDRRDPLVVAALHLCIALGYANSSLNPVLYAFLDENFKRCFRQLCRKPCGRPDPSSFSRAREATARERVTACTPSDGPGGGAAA
# T1 sequence (P33534 whole entry): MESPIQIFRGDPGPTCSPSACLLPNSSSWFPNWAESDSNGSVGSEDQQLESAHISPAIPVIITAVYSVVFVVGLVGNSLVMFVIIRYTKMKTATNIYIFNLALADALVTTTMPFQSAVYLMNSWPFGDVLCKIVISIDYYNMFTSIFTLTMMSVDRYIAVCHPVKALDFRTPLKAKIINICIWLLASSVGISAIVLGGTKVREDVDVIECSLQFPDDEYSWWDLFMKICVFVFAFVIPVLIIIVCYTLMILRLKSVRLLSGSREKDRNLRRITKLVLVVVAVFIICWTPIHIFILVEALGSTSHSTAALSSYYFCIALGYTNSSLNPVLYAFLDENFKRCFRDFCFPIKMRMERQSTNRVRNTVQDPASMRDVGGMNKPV
# Sequence of MOR (P42866 whole entry): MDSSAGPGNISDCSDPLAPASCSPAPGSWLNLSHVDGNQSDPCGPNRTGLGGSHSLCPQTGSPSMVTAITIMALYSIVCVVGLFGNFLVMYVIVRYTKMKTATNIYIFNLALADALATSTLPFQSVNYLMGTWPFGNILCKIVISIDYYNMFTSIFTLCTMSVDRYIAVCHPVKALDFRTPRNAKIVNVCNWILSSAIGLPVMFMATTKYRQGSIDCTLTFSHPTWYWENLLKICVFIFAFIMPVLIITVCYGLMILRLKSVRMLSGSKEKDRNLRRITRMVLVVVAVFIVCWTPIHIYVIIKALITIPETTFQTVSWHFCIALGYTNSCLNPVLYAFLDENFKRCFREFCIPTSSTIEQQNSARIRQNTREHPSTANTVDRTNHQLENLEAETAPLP
Structure (SMILES),Emax (KOR [1]),MOR [35S]GTPγS Binding % Emax of DAMGO (MOR),Emax (DOR [2]),Selectivity κ/μ (KOR [3]),Emax (MOR),Selectivity δ/μ (DOR [4]),Ki (DOR [4])
"Cl.O=C(N[C@H]1CC[C@@]2(O)[C@H]3Cc4ccc(O)c5c4[C@@]2(CCN3CC2CC2)[C@H]1O5)c1ccc[nH]1 [Compound 1, 17-Cyclopropylmethyl-3,14β-dihydroxy-4,5α-epoxy-6a-[(2′-pyrrolyl)carboxamido]morphinan Hydrochloride]",43.4 ± 1.36%,12.11 ± 2.64%,50.9 ± 5.25%,,,,
"Cl.O=C(Cc1ccc[nH]1)N[C@H]1CC[C@@]2(O)[C@H]3Cc4ccc(O)c5c4[C@@]2(CCN3CC2CC2)[C@H]1O5 [Compound 3, 17-Cyclopropylmethyl-3,14β-dihydroxy-4,5α-epoxy-6a-[2′-(2′-pyrrolyl)acetamido]morphinan Hydrochloride]",,,,6,25 ± 2.61%,8,
"Cl.O=C(Cc1ccc[nH]1)N[C@@H]1CC[C@@]2(O)[C@H]3Cc4ccc(O)c5c4[C@@]2(CCN3CC2CC2)[C@H]1O5 [Compound 4, 17-Cyclopropylmethyl-3,14β-dihydroxy-4,5α-epoxy-6β-[2′-(2′-pyrrolyl)acetamido]morphinan Hydrochloride]",,,,8,44.2 ± 1.52%,152,
"Cl.O=C(CCc1ccc[nH]1)N[C@H]1CC[C@@]2(O)[C@H]3Cc4ccc(O)c5c4[C@@]2(CCN3CC2CC2)[C@H]1O5 [Compound 5, 17-Cyclopropylmethyl-3,14β-dihydroxy-4,5α-epoxy-6α[3′-(2′-pyrrolyl)propanamido]morphinan Hydrochloride]",,,,,24 ± 3.59%,,
"Cl.O=C(CCc1ccc[nH]1)N[C@@H]1CC[C@@]2(O)[C@H]3Cc4ccc(O)c5c4[C@@]2(CCN3CC2CC2)[C@H]1O5 [Compound 6, 17-Cyclopropylmethyl-3,14β-dihydroxy-4,5α-epoxy-6β-[3′-(2′-pyrrolyl)propanamido]morphinan Hydrochloride]",,,,2,39.3 ± 3.16%,70,
"Cl.O=C(N[C@H]1CC[C@@]2(O)[C@H]3Cc4ccc(O)c5c4[C@@]2(CCN3CC2CC2)[C@H]1O5)c1cc[nH]c1 [Compound 7, 17-Cyclopropylmethyl-3,14β-dihydroxy-4,5α-epoxy-6α-[(3′-pyrrolyl)carboxamido]morphinan Hydrochloride]",,16.65 ± 1.25%,,2,,31,
"Cl.O=C(Cc1cc[nH]c1)N[C@H]1CC[C@@]2(O)[C@H]3Cc4ccc(O)c5c4[C@@]2(CCN3CC2CC2)[C@H]1O5 [Compound 9, 17-Cyclopropylmethyl-3, 14β-dihydroxy-4,5α-epoxy-6α-[(3′-pyrrolyl)acetamido]morphinan Hydrochloride]",,,,5,31.6 ± 2.87%,4,
"Cl.O=C(Cc1cc[nH]c1)N[C@@H]1CC[C@@]2(O)[C@H]3Cc4ccc(O)c5c4[C@@]2(CCN3CC2CC2)[C@H]1O5 [Compound 10, 17-Cyclopropylmethyl-3,14β-dihydroxy-4,5α-epoxy-6β-[(3′-pyrrolyl)acetamido]morphinan Hydrochloride]",,,,,53.3 ± 0.95%,,
Cl.O=C(CCc1cc[nH]c1)N[C@@H]1CC[C@@]2(O)[C@H]3Cc4ccc(O)c5c4[C@@]2(CCN3CC2CC2)[C@H]1O5 [Compound 12],,,,7,37.7 ± 0.87%,164,
"Cl.O=C(N[C@H]1CC[C@@]2(O)[C@H]3Cc4ccc(O)c5c4[C@@]2(CCN3CC2CC2)[C@H]1O5)c1ccco1 [Compound 13, 17-Cyclopropylmethyl-3,14β-dihydroxy-4,5α-epoxy-6α-[(2′furanyl)carboxamido]morphinan Hydrochloride]",,,,3.83 and 4,21.8 ± 5.19%,62.83 and 63,
"Cl.O=C(N[C@@H]1CC[C@@]2(O)[C@H]3Cc4ccc(O)c5c4[C@@]2(CCN3CC2CC2)[C@H]1O5)c1ccco1 [Compound 14, 17-Cyclopropylmethyl-3,14β-dihydroxy-4,5α-epoxy-6β-[(2′furanyl)carboxamido]morphinan Hydrochloride]",67.2 ± 2.53%,,23.1 ± 0.97%,,24.2 ± 0.9%,,
"Cl.O=C(Cc1ccco1)N[C@H]1CC[C@@]2(O)[C@H]3Cc4ccc(O)c5c4[C@@]2(CCN3CC2CC2)[C@H]1O5 [Compound 15, 17-Cyclopropylmethyl-3, 14β-dihydroxy-4,5α-epoxy-6α-[(2′-furanyl)acetamido]morphinan Hydrochloride]",63.3 ± 2.5%,,66.8 ± 4.24%,,22.6 ± 2.77%,,
"Cl.O=C(Cc1ccco1)N[C@@H]1CC[C@@]2(O)[C@H]3Cc4ccc(O)c5c4[C@@]2(CCN3CC2CC2)[C@H]1O5 [Compound 16, 17-Cyclopropylmethyl-3,14β-dihydroxy-4,5α-epoxy-6β-[(2′-furanyl)acetamido]morphinan Hydrochloride]",49.3 ± 1.07%,,31.2 ± 1.49%,,40 ± 0.9%,,
"Cl.O=C(CCc1ccco1)N[C@H]1CC[C@@]2(O)[C@H]3Cc4ccc(O)c5c4[C@@]2(CCN3CC2CC2)[C@H]1O5 [Compound 17, 17-Cyclopropylmethyl-3, 14β-dihydroxy-4,5α-epoxy-6α-[(2′-furanyl)propanamido]morphinan Hydrochloride]",,,,,,4,
"Cl.O=C(CCc1ccco1)N[C@@H]1CC[C@@]2(O)[C@H]3Cc4ccc(O)c5c4[C@@]2(CCN3CC2CC2)[C@H]1O5 [Compound 18, 17-Cyclopropylmethyl-3,14β-dihydroxy-4,5α-epoxy-6β-[(2′-furanyl)propanamido]morphinan Hydrochloride]",,,,2,,118,
"Cl.O=C(N[C@H]1CC[C@@]2(O)[C@H]3Cc4ccc(O)c5c4[C@@]2(CCN3CC2CC2)[C@H]1O5)c1ccoc1 [Compound 19, 17-Cyclopropylmethyl-3, 14β-dihydroxy-4,5α-epoxy-6α-[(3′-furanyl)carboxamido]morphinan Hydrochloride]",,18.14 ± 2.95%,,,,,
"Cl.O=C(N[C@@H]1CC[C@@]2(O)[C@H]3Cc4ccc(O)c5c4[C@@]2(CCN3CC2CC2)[C@H]1O5)c1ccoc1 [Compound 20, 17-Cyclopropylmethyl-3,14β-dihydroxy-4,5α-epoxy-6β-[(3′-furanyl)carboxamido]morphinan Hydrochloride]",,,,3,25 ± 1.74%,234,
"Cl.O=C(Cc1ccoc1)N[C@H]1CC[C@@]2(O)[C@H]3Cc4ccc(O)c5c4[C@@]2(CCN3CC2CC2)[C@H]1O5 [Compound 21, 17-Cyclopropylmetyl-3, 14β-dihydroxy-4,5α-epoxy-6α-[(3′-furanyl)acetamido]morphinan Hydrochloride]",,14.95 ± 1.46%,,15,,9,
"Cl.O=C(Cc1ccoc1)N[C@@H]1CC[C@@]2(O)[C@H]3Cc4ccc(O)c5c4[C@@]2(CCN3CC2CC2)[C@H]1O5 [Compound 22, 17-Cyclopropylmetyl-3,14β-dihydroxy-4,5α-epoxy-6β-[(3′-furanyl)acetamido]morphinan Hydrochloride]",,,,16.7 and 17,30.8 ± 2.07%,332,
"O=C(Cc1cccs1)N[C@H]1CC[C@@]2(O)[C@H]3Cc4ccc(O)c5c4[C@@]2(CCN3CC2CC2)[C@H]1O5 [Compound 27, 17-Cyclopropylmethyl-3,14β-dihydroxy-4,5α-epoxy-6α-(2′-thienylacetamido)morphinan Hydrochloride]",,,,,,,6.92 ± 1.63 nM
